Measured values from PMC8317065, “UPLC-MS/MS Method for Analysis of Endocannabinoid and Related Lipid Metabolism in Mouse Mucosal Tissue” (Frontiers in Physiology, 2021).

Test system: DGL
Assay: DGL activity assay, UPLC-MS/MS, lung protein isolates
Format: biochemical, mouse
Conditions: for DAG metabolism (normalized response): lung protein 50 μg
Procedure: Homogenized samples were centrifuged at 800 × g for 15 m at 4°C. The supernatant was collected in a 2.0 mL centrifuge tube and sonicated twice for 10 s. Samples underwent two sequential freeze thaw cycles using liquid N2. Samples were again centrifuged at 800 × g, 15 min, 4°C and the supernatant was collected. Total protein was then quantified via BCA assay and normalized between all samples. Protein isolations for each assay and each tissue were performed separately.
Substrate solutions were prepared by drying stock 19:2 DAG (20 nmol/reaction) under N2 steam (99.998% pure) and reconstituted in a solution of 50 mM Tris–HCl with 0.2% Triton x-100 (pH = 7.0). This solution was bath sonicated for 60 min at room temperature while protein samples were prepared. […] In addition, the ABHD6 inhibitor, WWL 70 (10 μM), was added to lung protein isolates for the 10-minute room temperature incubation to ensure the product of interest was not metabolized ([Tchantchou and Zhang, 2013]). Dose-inhibition experiments included addition of the DGL inhibitor, THL [albeit not selective for DGL, see [Hoover et al. (2008)]; [DiPatrizio et al. (2015)]]. […] The products of the reaction were extracted via lipid extraction methods (see section “Lipid Extraction for Enzyme Assays”) and quantified via UPLC-MS/MS (see section “Quantitation of MAG Biosynthetic Enzyme Activity Assay Products”).
Lipids were extracted using liquid-liquid extraction with chloroform (2.0 mL) followed by 0.8 mL 0.2-micron ultra-purified water. […] Products were detected and quantified via UPLC-MS/MS techniques (see section “UPLC-MS/MS Detection of Analytes”).
Analytes were eluted at a flow rate of 0.4 mL/min and gradient: 80% methanol 0.0–0.5 min, 80–100% methanol 0.5–2.5 min, 100% methanol 2.5–3.0 min, 100–80% methanol 3.0–3.1 min, and 80% methanol 3.1–4.5 min. […] Lipids were quantified using a stable isotope serial dilution method detecting H^+ or Na^+ adducts of the molecular ions [M + H/Na]^+ in multiple reactions monitoring (MRM) mode (variable amounts of product 19:2 MAG versus fixed amount of internal standard [^2H5]-2-AG). […]

With `CCCCCCCCCCC[C@@H](C[C@@H]1OC(=O)[C@H]1CCCCCC)OC(=O)[C@H](CC(C)C)NC=O` [THL, tetrahydrolipstatin] the “DAG metabolism (normalized response)” value (highest inhibitor concentration of range (1,000 nM)) was 10.19 ± 0.29%, the “DAG metabolism (normalized response)” value (lowest inhibitor concentration of range (3 nM)) was 90.26 ± 9.07% and the IC50 (mouse lung protein isolates 50 μg, THL 3-1,000 nM, read-out: IC50, inhibition of DAG metabolism (DGL activity)) was 74.6 nM.
